Data published in publication PMC10098121, “Amphipathic barbiturates as marine product mimics with cytolytic and immunogenic effects on head and neck squamous cell carcinoma cell lines” (Frontiers in Pharmacology, 2023).

Key:
Assay type in all cases: cell-based, human
UT-SCC-24A cells [1] = assay: MTS viability assay with bafilomycin A1 and z-VAD-FMK; settings: 24 h, cisplatin 50 µM, MPM-2:0/MPM-6:0 10 µM, MPM-3:2/MPM-4:2 20 µM
Experimental: HSC-3 and UT-SCC-24A cells were seeded, 10,000 cells/well, in flat bottom 96-well plates and left to adhere overnight. The supernatants were then removed and replaced by 50 µl of complete DMEM/F-12 ± 100 nM BafA1 (#196000, Sigma-Aldrich, St. Louis, MO, United States) or 50 µM z-VAD-FMK (#219007, Sigma-Aldrich). The plate was then incubated for 1 hour before another 50 µl of complete DMEM/F-12 ± 100 nM BafA1 or 50 µM z-VAD-FMK as well as the MPMs or cisplatin was added. The final concentration of cisplatin was 50 µM and for the MPMs it was 5 or 10 µM for MPM-2:0 and MPM-6:0, and 10 or 20 µM for MPM-3:2 and MPM-4:2, for HSC-3 and UT-SCC-24A cells, respectively. 100 μl of media ± 1% Triton X-100 served as […]. The cells were incubated for 24 h before 20 µl of MTS reagent (CellTiter 96® Aqueous One Solution, Promega, Madison, WI, United States) was added to each well. The plate was then incubated for one more hour before absorbance was measured at 490 nm on a VersaMaxTM Microplate reader (Molecular Devices, San Jose, CA, United States). Viability was calculated using the following formula: %=Abs treated sample−Abs positive control/Abs negative control−Abs positive control x 100
At least three independent experiments were performed, with triplicate wells in each experiment.

[2] = test system: cell surface calreticulin on HSC-3 cells; assay: Flow cytometric detection of cell surface calreticulin; settings: HSC-3, 24 h; cisplatin 50 µM, MPMs 5-20 µM; vs untreated
Experimental: (§1) This procedure was based on a published method ([Liu et al., 2020]), but was performed with some modifications. Briefly, HSC-3 and UT-SCC-24A cells were seeded, 300,000 cells/well, in 6-well plates and left to adhere overnight. The media was then removed and replaced by 2 ml complete DMEM/F-12 containing 5, 7.5, 10 or 20 µM of MPM-2:0, MPM-6:0, MPM-3:2 or MPM-4:2, or 50 µM cisplatin. Some cells were left untreated. The cells were then incubated for 24 h. Next, the cell supernatants were collected before the cells were trypsinized and spun down with the supernatants. The cells were then washed in PBS before being incubated with the viability dye Zombie Violet (#423114, BioLegend, San Diego, CA, United States) diluted 1:500 in PBS for 20 min. Next, the cells were incubated with an anti-calreticulin antibody (#ab2907, Abcam) diluted 1:100 in FACS buffer (2%BSA in PBS) for 30 min. The cells were then fixed in 4% formaldehyde for 15 min and washed twice in FACS buffer before being incubated with the secondary antibody (#A11034, Thermo Fisher Scientific) diluted 1:250 in FACS buffer for 30 min. The cells were washed in FACS buffer and analyzed on a LSR Fortessa (BD Biosciences) within 1 week. Analyses were performed in FlowJo™ v.10 (https://www.flowjo.com/).

[3] = test system: cell surface calreticulin on UT-SCC-24A cells; assay: as above; settings: 24 h, cisplatin 50 µM, MPMs 5-20 µM, vs untreated
Experimental: as §1

UT-SCC-24A cells [4] = assay: Western blot for extracellular HMGB1; settings: 24 h, supernatant
Experimental: Detection of HMGB1 in the supernatant of MPM treated HSC-3 and UT-SCC-24A cells was performed as previously described ([von Hofsten et al., 2022]). Briefly, HSC-3 and UT-SCC-24A cells were seeded, 100,000 cells/well in 12-well plates and left to adhere overnight. The following day, the media was removed and replaced with media containing either 50 µM cisplatin, 5 or 10 µM MPM-2:0 or MPM-6:0, or 10 or 20 µM MPM-3:2 or MPM-4:2. The cells were incubated for 24 h before supernatants were collected and centrifuged to remove debris. Supernatant samples were mixed with DTT (final concentration 50 mM) and sample buffer before being boiled for 5 min and loaded on a NuPAGE® 10% Bis–Tris Gel (Thermo Fisher Scientific) before being electro-transferred to a polyvindiline dilfluoride (PVDF) immobilon-P membrane (Merck, Rahway, NJ, United States). The membrane was blocked for 1 h with 5% non-fat dry milk in TBST and then incubated overnight at 4°C with the primary antibody targeting HMGB1 (#ab18256, Abcam) diluted 1:1,000 in TBST 5% non-fat dry milk. Next, the membrane was washed three times in TBST and incubated with an HRP-conjugated goat anti-rabbit secondary antibody (#4050-05, Southern Biotech, Birmingham, AL, United States) diluted 1:2000 in TBST 5% non-fat dry milk at room temperature for 1 h. […]

HSC-3 cells [5] = assay: Scratch wound migration assay; settings: for wound closure in migration assay (in words): HSC-3, 10 µM, 24 h; for wound closing at the lower concentrations (in words): HSC-3, 0.1 or 1 µM, text does not separate migration and invasion
Experimental: (§2) Two Incucyte image lock 96-well plates (#4379, Sartorius) were coated with 50 µl myogel (0.5 mg/ml) per well. The next day, the media remaining in the wells was removed before HSC-3 cells were seeded at a density of 25,000 cells/well in 100 µl. The cells were left to adhere, and the following day, a scratch was made in the middle of each well using the Incucyte 96-pin WoundMaker tool (Sartorius). The wells were then washed once with media. For the migration assay, the media in each well was then replaced with 100 µl of media containing 0.1, 1 or 10 µM of MPM-2:0 or MPM-4:2. For the invasion assay, the media was replaced by 50 µl of a gel consisting of serum-free media, myogel (2.4 mg/ml), type I rat tail collagen (0.8 mg/ml, Corning, NY, USA) and 0.1, 1 or 10 µM of MPM-2:0 or MPM-4:2. The plate was incubated at 37°C for 1 h to let the gel solidify. Next, 100 µl of media, also containing 0.1, 1 or 10 µM of MPM-2:0 or MPM-4:2 was added on top of the gel. Both the migration and invasion plates were placed in the Incucyte S3 (Sartorius) and imaged at ×10 magnification every 2 hours for 24 h in total. The Incucyte software was used to analyze the relative wound density.

HSC-3 cells [6] = assay: Scratch wound invasion assay (myogel-collagen); settings: HSC-3, 10 µM, 24 h; control cells approximately 24 h
Experimental: as §2

Row | SMILES | viability in the presence of BafA1 (100 nM) or z-VAD-FMK (50 µM) (in words) (UT-SCC-24A cells [1]) | cell surface expression of calreticulin (in words) [2] | cell surface expression of calreticulin (in words) [3] | release of HMGB1 (in words) (UT-SCC-24A cells [4]) | wound closure in migration assay (in words) (HSC-3 cells [5]) | wound closing at the lower concentrations (in words) (HSC-3 cells [5]) | wound closure in invasion assay (in words) (HSC-3 cells [6])
1 | N.N.[Cl][Pt][Cl] [Cisplatin, cisplatin, reference compound] | z-VAD-FMK seemed to have some protective effects against cisplatin for both cell lines, while BafA1 had the opposite effect | did not induce any cell surface expression of calreticulin | did not induce any cell surface expression of calreticulin | – | – | – | –
2 | NCCN1C(=O)N(CCN)C(=O)C(CCCc2ccccc2)(CCCc2ccccc2)C1=O [MPM-2:0] | – | – | – | statistically significant | induced cell death so quickly that it was not possible to study the effect on migration or invasion | trend towards faster wound closing | induced cell death so quickly that it was not possible to study the effect on migration or invasion
3 | CN(C)CCCCN1C(=O)N(CCCCN(C)C)C(=O)C(CCCc2ccccc2)(CCCc2ccccc2)C1=O [MPM-4:2] | – | – | – | – | required more time to close the wound | trend towards faster wound closing | never managed to close the wound
4 | NCCCCCCN1C(=O)N(CCCCCCN)C(=O)C(CCCc2ccccc2)(CCCc2ccccc2)C1=O [MPM-6:0] | – | – | statistically significant levels of cell surface calreticulin | statistically significant | – | – | –
